# In PMC7782499, “Progerinin, an optimized progerin-lamin A binding inhibitor, ameliorates premature senescence phenotypes of Hutchinson-Gilford progeria syndrome” (Communications Biology, 2021):
# Values joined by “and” are separate entries in the source; they are usually repeats but may differ in a detail not shown here. Equal entries are not always repeated.
# Tested on: Lmna G609G/+ mouse
# Assay: Body weight of Lmna G609G/+ mice
# Type: in vivo
# Details: oral administration, relative body weight; for Lmna G609G/+ body weight, Ave: group average; for Lmna G609G/+ body weight: individual mouse
# From the text: Fig. 3 In vivo favorable effect of SLC-D011. A Gross morphology of Lmna^G609G/G609G mice (10 weeks old) was ameliorated after injection with SLC-D011. At the same age, the experimental group (D011) of mice were larger than vehicle-injected control (Con) subjects regardless of gender. B, C SLC-D011 increases body weight B and extends life span C of Lmna^G609G/G609G progeria model mouse (Con: n = 8; SLC-D011: n = 8). Compared with 14.8 weeks of average (ave) life span with maximum (max) life span of 15.5 weeks, 20 mg/kg of intraperitoneal (i.p) injection (twice a week) of SLC-D011 could extend the life span upto 19 weeks (max = 21 weeks). Lmna^G609G/G609G mice were injected with SLC-D011 from age of 5-week old, *p < 0.05. D Gross morphology of SLC-D011 injected Lmna^G609G/+ mouse. […] E SLC-D011 increases body weights of Lmna^G609G/+ mice (Con: n = 10; SLC-D011: n = 11), *p < 0.05. F Favorable effect of SLC-D011 on life span of Lmna^G609G/+ mice. Compared with vehicle-injected control group (ave = 46.7 weeks and max = 48 weeks), SLC-D011 treatment obviously extended the average life span to 63 weeks (max = 64 weeks). The injection was started from 32 weeks old, **p < 0.001. “Con” means vehicle (a solvent composed of DMSO and PBS)-injected mouse group. TEXT PRINTED IN THE PICTURE: (C) D011: Kaplan-Meier survival curve in Lmna^G609G/G609G: Ave=19; Kaplan-Meier survival curve in Lmna^G609G/G609G: Max=21 | (F) D011: Kaplan-Meier survival curve in Lmna^G609G/+: Ave=63; Kaplan-Meier survival curve in Lmna^G609G/+: Max=64 DOUBTS OF THE COPYIST ABOUT THIS PICTURE: Panels C and F: the Ave/Max labels are not printed with a group name. They are assigned to D011 (solid curve) or Con (dashed curve) only by their position beside the curves. / Panel C Ave=14.8, Max=15.5 and panel F Ave=46.7, Max=48 stand beside the dashed Con curve. They are left out because Con is the control group, not a substance. / No unit is printed with the Ave/Max values. Only the axis reads Age (weeks).
# Animal experiments were performed in a facility certified by the Association for Assessment and Accreditation of Laboratory Animal Care in compliance with animal policies approved by Pusan National University. The mouse work was performed under the study protocol PNU-2019-2181, as approved by the Institutional Animal Care and Use Committee. Lmna^G609G/609G mice were generated by timed mating of heterozygous Lmna^G609G/+ provided by Carlos López-Otín (Universidad de Oviedo, Asturias, Oviedo, Spain). SLC-D011 was mixed with dimethyl sulfoxide (DMSO) and phosphate-buffered saline (PBS). It was then intraperitoneally injected into mice (20 mg/kg twice per week from 5-week-old). SLC-D011 and lonafarnib were orally administrated to mice daily at a concentration of 10 mg/ml in monoolein-based solution. Lonafarnib was generously provided by Merck, the Progeria Research Foundation (PRF) and the PRF Lonafarnib Pre-clinical Drug Supply Program. Control mice were treated with monoolein-based solution alone in the same way. Lmna^G609G/609G mice were treated with clear chemical solution throughout the life span, starting from 5 weeks of age. Lmna^G609G/+ mice were treated via intraperitoneal and oral administrations, starting from 32 weeks of age.
# Fig. S10. Or al administration of SLC-D011 suppresses premature aging features of LmnaG609G/+ mi c e . A.
# Gross morphology of SLC-D011 treated Lmna G609G/+ mice at 36 weeks old. B. Oral administration of SLC-
# D011 increases body weight s of LmnaG609G/+ mi c e (untreated: n=11; SLC-D011: n=12), * p<0.05. C. […]
# intensity of H3K9me3 levels in lung, liver, and kidney tissues of age-matched Lmn a +/+ mouse, untreated
# LamnG609G/+ mouse and two progerinin- treated LmnaG609G/+ mice (n = 2 independent experiments; one
# Student’s t -test), **p < 0.001,*p< 0.05, N.S: not significant .AU, arbitrary units.
# Fig. S12. […] A. SLC-D011, compar ed to lonafarnib, reduces […]
compound,measurement,setting,value
"NC(=O)N1CCC(CC(=O)N2CCC([C@H]3c4ncc(Br)cc4CCc4cc(Cl)cc(Br)c43)CC2)CC1 [lonafarnib, reference compound]","Lmna G609G/+ body weight, Ave",week 36,1
same,Lmna G609G/+ body weight,week 36,1
same,"Lmna G609G/+ body weight, Ave",week 38,0.9406
same,Lmna G609G/+ body weight,week 38,0.9091 and 0.9 and 0.96 and 0.95 and 0.913 and 0.9565
same,"Lmna G609G/+ body weight, Ave",week 40,0.9202
same,Lmna G609G/+ body weight,week 40,0.8636 and 0.85 and 0.92 and 0.9 and 0.96 and 0.913 and 0.9565 and 0.95 and 0.9091
same,"Lmna G609G/+ body weight, Ave",week 42,0.88
same,Lmna G609G/+ body weight,week 42,0.8636 and 0.8 and 0.84 and 0.85 and 0.92 and 0.913 and 0.88 and 0.9091
same,"Lmna G609G/+ body weight, Ave",week 44,0.8157
same,Lmna G609G/+ body weight,week 44,0.7727 and 0.7 and 0.8 and 0.88 and 0.7273 and 0.8182 and 0.85
same,"Lmna G609G/+ body weight, Ave",week 46,0.7411
same,Lmna G609G/+ body weight,week 46,0.7273 and 0.65 and 0.72 and 0.75 and 0.76 and 0.7 and 0.8182 and 0.8
same,"Lmna G609G/+ body weight, Ave",week 48,0.6808
same,Lmna G609G/+ body weight,week 48,0.6818 and 0.6 and 0.64 and 0.75 and 0.68 and 0.7 and 0.7273 and 0.72
same,"Lmna G609G/+ body weight, Ave",week 50,0.6132
same,Lmna G609G/+ body weight,week 50,0.5909 and 0.55 and 0.6 and 0.7 and 0.64 and 0.5 and 0.6957 and 0.65 and 0.6818
same,"Lmna G609G/+ body weight, Ave",week 52,0.4605
same,Lmna G609G/+ body weight,week 52,0.4545 and 0 and 0.4 and 0.55 and 0.48 and 0.5217 and 0.6957 and 0.5 and 0.44
same,"Lmna G609G/+ body weight, Ave",week 54,0.1559
same,Lmna G609G/+ body weight,week 54,0.4545 and 0 and 0.44 and 0.5217
